The values that follow come from patent US20230165817A1, “DOPAMINERGIC MIMETICS” (TDELTAS LIMITED, priority 2004, published 2023).

Data set [1] deals with electrical power of four rat brain areas (frontal cortex, hippocampus, striatum, reticular formation). To be noted: literature (Dimpfel et al., 1987; Dimpfel, 2003); cited from earlier work.
The test system is the same in data set [2]. In words: EEG measurements (Tele-Stereo-EEG) in freely-moving rats after single intraperitoneal injection. The class given is in vivo, Fisher rats. The source says:
Analysis of brain field potentials (“Tele-Stereo-EEG”) has been proven to be a very sensitive tool for the characterization of drug effects on the central nervous system (Dimpfel et al., 1986). After administration of a centrally active drug, quantitative changes in the brain field potentials can be considered as a characteristic fingerprint of that particular drug. “Fingerprints” of more than 100 compounds have been obtained including 8 established drug categories, e.g. stimulants, sedatives, hallucinogenics, tranquilizers, analgesics, antidepressants, neuroleptics, and narcotics. Different dosages of the same drug cause quantitative changes in electrical power. […] Direct comparison with specific reference drugs, or by discriminant analysis with reference to an extensive fingerprint database, permits the detection of any possible similarities with established drugs. In general, “fingerprints” show prominent differences for drugs prescribed for different indications and are similar for drugs with similar indication (Dimpfel, 2003). Furthermore, the pattern of EEG changes in the rat is a useful tool in predicting possible changes in the EEG power spectrum in humans.
Adult Fisher rats (4-6 month of age and day-night converted, bodyweight approximately 400 g) were implanted with 4 bipolar concentric steel electrodes using a stereotaxic surgical procedure. According to the coordinates of Paxinos and Watson (1982), all four electrodes were placed 3 mm lateral within the left hemisphere. Anterior coordinates were 12.2, 5.7, 9.7 and 3.7 mm for frontal cortex, hippocampus, striatum and reticular formation, respectively. A baseplate carrying the electrodes and a 5-pin-plug was fixed to the skull by dental cement attached to 3 steel screws fixed into the skull. Animals were given two weeks for recovery from the surgical procedure.
EEG signals were recorded from frontal cortex, hippocampus, striatum and reticular formation and were amplified and processed as described by Dimpfel et al. (1986). After automatic artefact rejection, signals were collected in sweeps of 4 s duration and submitted to Fast Fourier transformation. The resulting electrical power spectra were divided into 6 frequency ranges: delta (0.8-4.5 Hz); theta (4.75-6.75 Hz); alpha1 (7.00-9.50 Hz); alpha2 (9.75-12.50 Hz); beta (12.75-18.50 Hz); beta2 (18.75-35.00 Hz). […] In an off-line procedure spectra were averaged to give 15 minute or longer periods for further statistical analysis.
Four doses of KTX 0101 (sodium (R)-3-hydroxybuytrate: 100, 300, 600 and 1000 mg/kg body weight) (supplied by Solvias AG, CH 4002 Basel, Switzerland, batch No: SO-1058.047.1.120) and a vehicle control (0.9% w/v saline) were administered intraperitoneally to a group of 12 animals using a crossover design with at least 3 drug holidays in between the applications. After a pre-drug period of 45 minutes for baseline recording, drug effects were observed continuously for 300 minutes. Changes of electrical power (μV2/W) are expressed as percentage of the 45 minute pre-drug values. Multivariate statistics were calculated according to Ahrens and Läuter (1974).

The nature of data set [3]: Plasma determination of (R)-3-hydroxybutyrate after intraperitoneal injection. The class given is in vivo, Sprague-Dawley rats. The following applies: rat. How it is done:
(§1) One hundred and seventy-one male Sprague-Dawley rats (weight range 200-250 g) housed on a standard […] were used. Animals had free access to a standard pelleted rat diet and tap water at all times. KTX 0101 (sodium (R)-3-hydroxybuytrate; 100, 300, 600 and 1000 mg/kg body weight) supplied by Sigma (H6501, Lot 111K2618) was administered by intraperitoneal injection. Control animals received the appropriate 0.9% saline vehicle via the same route. Animals were killed by CO2 asphyxiation 0 h, 0.5 h, 1.0 h or 2.0 h after dosing and a terminal blood sample was collected by cardiac puncture. Blood was taken in lithium heparinised tubes and kept on ice prior to centrifugation to yield the plasma samples for analysis.
Commercial clinical assay kits for the determination of D-β-hydroxybutyrate were obtained from Randox Laboratories (Antrim, UK). The kit quantified NADH via the activity of β-hydroxybutyrate dehydrogenase measured as an increase in OD340 nm. An alkaline pH is necessary to drive the reaction equilibrium towards the production of NADH and acetoacetate.
This spectrophotometric assay was modified for application to a 96 well microplate format. The reaction rate was then determined from the increase in OD340 nm over a 1 minute time course, after allowing a necessary period for the reaction rate to settle.

Data set [4] can be described thus: Plasma determination of acetoacetate after intraperitoneal injection. Format: in vivo, Sprague-Dawley rats. To be noted: 30 min after dosing, rat. How it is done: as §1
The assay developed for the determination of acetoacetate was based on previously published clinical assays (Li et al, 1980; McMurray et al, 1984). A different assay buffer was prepared (0.1M Na2PO4 adjusted to pH 7.0 with HCl) in order to shift the equilibrium of the reaction to production of β hydroxybutyrate and NAD+. Other modifications included the additional use of sodium oxalate at a final assay concentration of 20 mM to inhibit lactate dehydrogenase (LDH) present in the plasma samples. […]
Acetoacetate was measured via the reduction in OD340 nm over a 1 minute period after allowing for the reaction rate to settle.

Structures are written as SMILES.

As to `Oc1cc2c(cc1O)C(c1ccccc1)CNCC2` (stereo not shown) [SKF 38393], the “EEG frequency changes of drugs enhancing dopaminergic function” value in data set [1] was “decrease delta, theta and alpha2 frequencies”.

Regarding `N[C@@H](Cc1ccc(O)c(O)c1)C(=O)O` [L-DOPA], in data set [1], the “EEG frequency changes of drugs enhancing dopaminergic function” value is “decrease delta, theta and alpha2 frequencies”.

As to `C[C@@H](O)CC(=O)[O-].[Na+]` [KTX 0101, sodium (R)-3-hydroxybuytrate], the “Duration of EEG effects” value in data set [2] (100 mg/kg body weight ip, rat) is 1 to 2 h; in data set [2] (600 mg/kg ip, rat, brain regions except reticular formation) it was ~2 h. For the same compound, the “Statistical significance of EEG changes” value in data set [2] (100 mg/kg body weight ip, rat) was “not statistically significant”; in data set [2] (300 mg/kg ip, rat), “only statistically significant in the reticular formation”; in data set [2] (600 mg/kg ip, rat, including first hour within striatum and all 24 variables), “statistically significant”; in data set [2] (1000 mg/kg ip, rat, even for the 4th hour within the reticular formation), “statistically significant”. Further, the “Changes in EEG power spectrum (frequency changes)” value in data set [2] (100 mg/kg body weight ip, rat, vs pre-drug values) is recorded as “decrease of electrical power mainly with regard to alpha2”; in data set [2] (300 mg/kg ip, rat, vs pre-drug values), “decreases in alpha2 power throughout all brain regions”; in data set [2] (1000 mg/kg ip, rat) it was “identical pattern of change, but with more prominent decreases of power”. Besides, the “Duration of EEG pattern of changes” value in data set [2] (300 mg/kg ip, rat) worked out at 2 h. Also, the “Duration of decreases in EEG power in the reticular formation” value in data set [2] (600 mg/kg ip, rat, reticular formation) is “persisted throughout the third hour”. In addition, the “Duration of decreases of EEG power” value in data set [2] (1000 mg/kg ip, rat) is recorded as “lasting into the third hour”. Also, in data set [2] (1000 mg/kg ip, rat, reticular formation, total experimental time), the “Duration of decreases of EEG power in the reticular formation” value turned out to be 5 h. Besides, the “Similarity of qEEG fingerprint to drug classes by discriminant analysis” value in data set [2] (24 variables, 20th to 50th min after single-dose application, rat) was “close proximity to the dopamine reuptake inhibitor, cocaine and the dopamine releasing agent, d-amphetamine”. For the same compound, in data set [2] (after ip injection, rat), the “Period of greatest changes in EEG patterns” value was in the range of 5 to 65 min. Also, the “EEG changes, summary over dose range” value in data set [2] (dose range 300 to 1000 mg/kg ip, rat) is “clear, dose- and time-dependent statistically significant changes”. The “Specific EEG frequencies changed” value in data set [2] (rat, ip) is “decrease the delta, theta and alpha2 EEG frequencies”. For the same compound, in data set [2] (single ip injection, range 100 to 1000 mg/kg, freely-moving rats), the “EEG power spectrum changes, dose dependence” value is reported as “clear, dose-dependent changes in the EEG power spectrum”. Also, the “Plasma concentration of (R)-3-hydroxybutyrate” value in data set [3] (100, 300, 600 and 1000 mg/kg ip) is recorded as “clear dose-dependent increases”. In data set [3] (100-1000 mg/kg ip, after injection), the “Time at which plasma (R)-3-hydroxybutyrate had returned to control values” is ≤ 1 h. Also, the “Time of highest elevations in plasma (R)-3-hydroxybutyrate” value in data set [3] (100-1000 mg/kg ip, first sample) was 30 min. For the same compound, the “Plasma concentration of acetoacetate” value in data set [4] (600 mg/kg ip) and in data set [4] (1000 mg/kg ip) was “significantly increased” throughout.
